From the supplement of paper PMC10307832

Tests used:
Assay in all cases: relative viability (nuclei count vs DMSO), 5 days (fraction); higher = more cells survive
[1] = compound: CN(C/C=C/C1=CC=C(C=C1)Cl)CC2=CC=CC=C2N(CCO)S(=O)(=O)C3=CC=C(C=C3)OC [KN-93] + COc1cc2c(Oc3ccc(NC(=O)C4(C(=O)Nc5ccc(F)cc5)CC4)cc3F)ccnc2cc1OCCCN1CCOCC1 [Foretinib] (partner 0.25 µM)
Summary of the method: (§1)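 Five library-drug doses in √10 steps were combined with a fixed anchor-drug dose, or a single drug was given alone, by pin tool to lung cancer cell lines in 1536-well plates the day after seeding. Nuclei were stained and counted after 5 days. Relative viability is the nuclei count in treated wells over that in vehicle wells, taken as the median of duplicate plates.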

[2] = compound: CN(C/C=C/C1=CC=C(C=C1)Cl)CC2=CC=CC=C2N(CCO)S(=O)(=O)C3=CC=C(C=C3)OC [KN-93] + Cc1cc(Nc2cc(N3CCN(C)CC3)nc(Sc3ccc(NC(=O)C4CC4)cc3)n2)n[nH]1 [Tozasertib] (partner 0.1 µM)
Summary of the method: as §1

[3] = compound: CN(C/C=C/C1=CC=C(C=C1)Cl)CC2=CC=CC=C2N(CCO)S(=O)(=O)C3=CC=C(C=C3)OC [KN-93] + O=C(CCCCCCC(=O)Nc1ccccc1)NO [Vorinostat] (partner 1 µM)
Summary of the method: as §1

[4] = compound: CN(C/C=C/C1=CC=C(C=C1)Cl)CC2=CC=CC=C2N(CCO)S(=O)(=O)C3=CC=C(C=C3)OC [KN-93] + CCNC(=O)c1noc(-c2cc(C(C)C)c(O)cc2O)c1-c1ccc(CN2CCOCC2)cc1 [Luminespib] (partner 0.01 µM)
Summary of the method: as §1

[5] = compound: CN(C/C=C/C1=CC=C(C=C1)Cl)CC2=CC=CC=C2N(CCO)S(=O)(=O)C3=CC=C(C=C3)OC [KN-93] + CC(C)C[C@H](NC(=O)[C@H](Cc1ccccc1)NC(=O)c1cnccn1)B(O)O [Bortezomib] (partner 0.002 µM)
Summary of the method: as §1

Cell Line	relative viability ([1]; first compound 0.08 µM)	relative viability ([1]; first compound 0.253 µM)	relative viability ([1]; first compound 2.53 µM)	relative viability ([1]; first compound 8 µM)	relative viability ([2]; first compound 0.08 µM)	relative viability ([2]; first compound 0.253 µM)	relative viability ([2]; first compound 2.53 µM)	relative viability ([2]; first compound 8 µM)	relative viability ([3]; first compound 0.08 µM)	relative viability ([3]; first compound 0.253 µM)	relative viability ([3]; first compound 2.53 µM)	relative viability ([3]; first compound 8 µM)	relative viability ([4]; first compound 0.08 µM)	relative viability ([4]; first compound 0.253 µM)	relative viability ([4]; first compound 2.53 µM)	relative viability ([4]; first compound 8 µM)	relative viability ([5]; first compound 0.08 µM)	relative viability ([5]; first compound 0.253 µM)	relative viability ([5]; first compound 2.53 µM)	relative viability ([5]; first compound 8 µM)
LC-2-ad	0.992	1.01	0.915	0.699	0.444	0.393	0.483	0.389	0.688	0.801	0.746	0.582	1.11	1.15	0.94	0.818	0.975	0.998	1.22	0.446
LCLC-97TM1	0.955	0.978	0.895	0.74	0.254	0.229	0.226	0.194	0.629	0.723	0.637	0.437	0.717	0.845	0.849	0.714	0.636	0.576	0.906	0.466
LCLC-103H	0.901	1.01	0.799	0.536	0.427	0.501	0.434	0.376	0.782	0.768	0.658	0.573	0.948	1.22	1.04	0.756	0.968	1.07	1.16	0.949
LOU-NH91	0.963	0.886	1.01	0.885	0.618	0.663	0.586	0.477	0.957	0.835	0.903	0.8	0.399	0.353	0.331	0.321	0.534	0.456	0.48	0.392
LU99A	0.884	0.896	0.817	0.676	0.239	0.287	0.246	0.212	0.282	0.48	0.535	0.343	0.222	0.23	0.327	0.246	1.08	1.28	1.33	0.93
LXF-289	0.982	1.01	0.944	0.805	0.201	0.25	0.215	0.147	0.661	0.839	0.716	0.546	0.536	0.833	0.787	0.588	0.853	1.12	1.12	0.833
NCI-H23	0.935	1.13	1.1	0.666	0.327	0.359	0.439	0.267	0.596	0.626	0.543	0.258	0.227	0.185	0.199	0.212	0.878	1.07	1.14	0.893
NCI-H322M	0.959	0.933	0.984	0.762	0.505	0.502	0.524	0.489	0.917	0.836	0.826	0.782	0.921	0.793	0.954	0.752	1.36	1.21	1.29	1.14
NCI-H441	1.08	1.23	1.2	0.73	0.639	0.806	0.553	0.435		1.06	0.864	0.498	0.295	0.417	0.36	0.287		0.672	0.365	0.22
NCI-H460	0.715	1.06	1.02	0.591	0.397	0.104	0.381	0.153	0.308	0.618	1.08	0.485	0.0407	0.0268	0.0273	0.0309	0.813	1.93		0.717
NCI-H520	0.885	0.952	0.768	0.711	0.455	0.447	0.459	0.382	0.619	0.906	0.831	0.58	0.246	0.212	0.281	0.224		0.883	0.914	0.511
NCI-H596	0.862	0.989	0.886	0.532	0.783	1.02	1.06	0.747	0.654	0.528	0.656	0.324	0.924	1.34	1.21	0.789	1.02	1.29	1.18	0.942
NCI-H647	1.11	1.37	1.54	1.07	0.31	0.299	0.0549	0.196	0.532	0.853	0.601	0.323	0.168	0.145	0.13	0.109	0.712	1.16	1.63	0.986
NCI-H650	1.11	0.972	0.968	0.705	0.738	0.762	0.694	0.523	0.495	0.422	0.544	0.346	0.697	0.76	0.855	0.579	0.959	0.915	1.25	0.454
NCI-H661	0.942	1.13	0.976	0.481	0.365	0.355	0.342	0.36	0.703	0.923	0.641	0.535	0.896	1.06	0.851	0.542	0.735	0.901	0.713	0.665
NCI-H727	1.04	0.945	0.863	0.553	0.689	0.658	0.465	0.447	1.05		1.3	1.01	0.367	0.326	0.351	0.376	0.66	0.853	0.785	0.391
NCI-H838	0.946	0.977	1.13	0.905	0.256	0.257	0.252	0.235	0.738	0.62	0.663	0.592	0.306	0.268	0.197	0.223	0.735	0.919	1.16	0.796
NCI-H1355	0.879	0.984	1.03	0.868	0.51	0.451	0.481	0.31	0.685	0.516	0.739	0.578	0.616	0.636	0.574	0.552	1.11	1.11	1.3	0.895
NCI-H1437	1.17	1.26	1.13	0.64	0.37	0.433	0.383	0.264	0.608	0.854	0.529	0.324	0.999	1.3	0.907	0.559	0.465	0.564	0.53	0.365
NCI-H1650	1.18	1.16	1.25	0.644	0.39	0.339	0.382	0.309	0.468	0.503	0.541	0.431	0.182	0.187	0.208	0.19	0.218	0.196	0.208	0.203
NCI-H1651	0.669	0.845	0.886	0.582	0.647	0.627	0.906	0.509	0.517	0.607	0.601	0.528	0.757	0.829	0.757	0.546	0.976	1.03	0.987	0.805
NCI-H1666	0.85	0.996	1.01	0.959	0.599	0.662	0.57	0.454	1.07	1.1	1.04	1.06	0.946	1.13	1.1	0.941	0.753	0.669	0.945	0.607
NCI-H1734	0.72	0.847	0.734	0.585	0.254	0.27	0.264	0.215	0.808	0.837	0.944	0.576	0.167	0.17	0.181	0.179	0.941	0.902	1.1	0.566
NCI-H1755	0.993	0.924	0.921	0.794	0.625	0.604	0.584	0.468	0.844	0.835	0.856	0.511	0.457	0.436	0.285	0.221	0.923	1.07	0.967	0.546
NCI-H1915	0.952	1.23	1.25	0.912	0.388	0.446	0.413	0.308	0.496	0.607	0.608	0.491	0.567	1.47	0.846	0.748	0.929	1.31	1.1	0.54
NCI-H1975	0.848	1.11	0.972	0.475	0.702	0.849	0.676	0.146	0.614	0.812	0.728	0.452	0.187	0.241	0.164	0.135	0.334	0.38	0.33	0.249
NCI-H1993	0.774	0.78	0.808	0.672	0.563	0.552	0.593	0.519	0.659	0.711	0.742	0.702	0.677	0.756	0.929	0.638	0.836	1.02	1.2	0.523
